From patent US20240376097A1, “BCL-2 Inhibitor” (BeiGene Ltd., priority 2020, published 2024)

Experiments:
[1] = target: Recombinant human Bcl-2 protein (Homo sapiens (Human), UniProt P10415); experiment: Bcl-2 TR-FRET Assay; format: binding; settings: Bcl-2 wild type, TR-FRET; read-out: Biochemical assay (IC50, nM) Bcl-2 WT
Outline: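 In pH 7.5 phosphate buffer containing NaCl, EDTA, Tween-20 and BSA, 0.05 nM Bcl-2 saw serially diluted compound for 0.5 h before 0.5 nM FITC-Bak peptide was added. Signal ratio at 520/490 nm after 1 h yielded IC50.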

[2] = test system: recombinant human Bcl-2-G101V protein; experiment: Bcl-2-G101V TR-FRET Assay; format: binding; settings: ratio of biochemical IC50 Bcl-2 G101V / Bcl-2 WT
Outline: (§1)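 Compounds were titrated at increasing concentrations against the Bcl-2-G101V–ligand interaction. TR-FRET signals were then read (ex 337 nm; em 490/520 nm). Percent inhibition was derived from the 490-to-520 nm ratio, and IC50 from a four-parameter logistic equation.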

[3] = target: recombinant human Bcl-2-G101V protein (Homo sapiens (Human), UniProt P10415, G101V); experiment: Bcl-2-G101V TR-FRET Assay; format: binding; settings: Bcl-2 G101V mutant, TR-FRET; read-out: Biochemical assay (IC50, nM) Bcl-2 G101V
Outline: as §1

[4] = test system: RS4;11 (BCL-2 dependent acute lymphoblastic leukemia cell line); experiment: RS4;11 Cell Proliferation Assay; format: cell-based; settings: Homo sapiens, RS4-11, RS4;11 cells, read-out: Cellular proliferation assay (IC50, nM) RS4
Experimental: Biological Example: RS4;11 Cell Proliferation Assay
(§2) The BCL-2 dependent acute lymphoblastic leukemia (ALL) cell line, RS4;11, was used to study the cellular potency of BCL-2 inhibitors. The cells (ATCC, CRL-1873) were cultured in RPMI-1640 complete medium (RPMI-1640 medium, HEPES (Gibco, 22400-105) supplemented with 10% fetal bovine serum (FBS) (Gibco, 10099-1441), 100 unit/ml penicillin and 100 μg/ml streptomycin (Gibco, 15140122)) and maintained in a humidified chamber at 37° C. containing 5% CO2. Each compound was serially diluted with 1 μM as the maximum concentration. To test the apoptotic effect of the compounds, the cells were seeded at 50,000 in 180 μl per well in 96-well plates and treated with 10-point dilution series of each compound for 48 hrs at 37° C. Cell viability was assessed after the treatment using CellTiter-GLO luminescent assay (Promega) according to the manufacturer's recommendations. Briefly, 30 μl of CellTiter-GLO reagent was added into 200 μl of cell culture. Mixture was agitated on an orbital shaker for 5 min to ensure cell lysis followed by 7 min incubation at room temperature to allow development and stabilization of luminescent signals, which corresponded to the quantity of ATP and thus the quantity of metabolically active cells. Luminescent signals were measured using PHERAstar FS reader (BMG). Mean IC50 values were determined with GraphPad Prism software.

[5] = test system: BCL-2 G101V knock-in cell line H96 (derive from RS4;11); experiment: Bcl 2-G101V Knock-In RS4;11 Cell Proliferation Assay; format: cell-based; settings: Homo sapiens, RS4;11 Bcl-2 G101V knock-in clone H96, 48 hrs, CellTiter-GLO, read-out: Cellular proliferation assay (IC50, nM) RS4
Experimental: Biological Example: Bcl 2-G101V Knock-In RS4;11 Cell Proliferation Assay
(1) RS4;11 H96 Bcl 2-G101V Knock-In Cell Line Generation
Briefly, RS4;11 BCL2-G101V knock-in cell pool was generated using Crisper/Cas9 gene editing system and the BCL2-G101V knock-in single clone H96 was picked from the knock-in cell pool and validated by WES (whole exome-sequencing) and RNA-seq.
The BCL-2 dependent acute lymphoblastic leukemia (ALL) cell line, RS4;11(ATCC, CRL-1873), was cultured in RPMI-1640 complete medium (RPMI-1640 medium, HEPES (Gibco, 22400-105) supplemented with 10% fetal bovine serum (FBS) (Gibco, 10099-1441), 100 unit/ml penicillin and 100 μg/ml streptomycin (Gibco, 15140122)) and maintained in a humidified chamber at 37° C. containing 5% CO2.
To obtain BCL2-G101V knock-in cell pool, RS4;11 was co-transfected with the Cas9-gRNA which also expressed GFP label, and the Donor gene which contained the BCL2-G101V mutant sequence. After 48 hrs of electroporation, the GFP positive cells were collected through FACSAriaIII cell sorting system. Cell pool was recovered for 3 days and then cultured under 2 nM ABT-199 stress for 4 weeks. […] Then cells were plated in 96 well U-plate with 1 cell/well for 10000 wells for single clone selection. After 3-5 weeks growing, clones were successively screened by PCR sequencing. And three BCL2-G101V knock-in clones: H96, H142 and H233, have been picked out.
Three clones were validated by genome DNA and cDNA(mRNA) PCR sequencing, and BCL-2, BCL-xL and MCL-1 expression using Western Blot. The H96 clone was also validated by WES (whole exome-sequencing) and RNA-seq.
(2) Bcl 2-G101V Knock-In RS4;11 Cell Proliferation Assay
as §2, with “G101V knock-in” for “dependent acute lymphoblastic leukemia (ALL)”, “line H96 (derive from RS4;11) were” for “line, RS4;11, was”, “cells” for “cells (ATCC, CRL-1873)”, “μM or 10 μM” for “μM”, “90” for “180”, “100” for “200”

Compound | IC50 [1] | Ratio of Bcl-2 G101V/WT [2] | IC50 [3] | IC50 [4] | IC50 [5]
CC(C)c1ccccc1[C@H]1CN(C(C)C)CCN1C1CC2(CCN(c3ccc(C(=O)NS(=O)(=O)c4ccc(NC[C@H]5CC[C@](C)(O)CC5)c([N+](=O)[O-])c4)c(Oc4cnc5[nH]ccc5c4)c3)CC2)C1 (single isomer, unassigned) [Example 3a, 2-((1H-pyrrolo[2,3-b]pyridin-5-yl)oxy)-N-((4-((((1r,4r)-4-hydroxy-4-methylcyclohexyl)methyl)amino)-3-nitrophenyl)sulfonyl)-4-(2-((S or R)-4-isopropyl-2-(2-isopropylphenyl)piperazin-1-yl)-7-azaspiro[3.5]nonan-7-yl)benzamide] | 0.034 nM | 64.7 | 2.2 nM | 3.67 nM | 35.1 nM
CC(C)c1ccccc1[C@@H]1CN(C2CC2)CCN1C1CC2(CCN(c3ccc(C(=O)NS(=O)(=O)c4ccc(NC[C@H]5CC[C@](C)(O)CC5)c([N+](=O)[O-])c4)c(Oc4cnc5[nH]ccc5c4)c3)CC2)C1 (single isomer, unassigned) [Example 4, 2-((1H-pyrrolo[2,3-b]pyridin-5-yl)oxy)-4-(2-((R or S)-4-cyclopropyl-2-(2-isopropylphenyl)piperazin-1-yl)-7-azaspir[3.5]nonan-7-yl)-N-((4-((((1r,4r)-4-hydroxy-4-methylcyclohexyl)methyl)amino)-3-nitrophenyl)sulfonyl)benzamide] | 0.045 nM | 35.6 | 1.6 nM | 0.87 nM | 9.56 nM
COCCN1CCN(C2CC3(CCN(c4ccc(C(=O)NS(=O)(=O)c5ccc(NC[C@H]6CC[C@](C)(O)CC6)c([N+](=O)[O-])c5)c(Oc5cnc6[nH]ccc6c5)c4)CC3)C2)[C@@H](c2ccccc2C(C)C)C1 (single isomer, unassigned) [Example 13a, 2-((1H-pyrrolo[2,3-b]pyridin-5-yl)oxy)-N-((4-((((1r,4r)-4-hydroxy-4-methylcyclohexyl)methyl)amino)-3-nitrophenyl)sulfonyl)-4-(2-((S or R)-2-(2-isopropylphenyl)-4-(2-methoxyethyl)piperazin-1-yl)-7-azaspiro[3.5]nonan-7-yl)benzamide] | 0.038 nM | 94.7 | 3.6 nM | 10.5 nM | 87.4 nM
CC(C)c1ccccc1[C@@H]1CN(Cc2cnn(C)c2)CCN1C1CC2(CCN(c3ccc(C(=O)NS(=O)(=O)c4ccc(NC[C@H]5CC[C@](C)(O)CC5)c([N+](=O)[O-])c4)c(Oc4cnc5[nH]ccc5c4)c3)CC2)C1 (single isomer, unassigned) [Example 22b, 2-((1H-pyrrolo[2,3-b]pyridin-5-yl)oxy)-N-((4-((((1r,4r)-4-hydroxy-4-methylcyclohexyl)methyl)amino)-3-nitrophenyl)sulfonyl)-4-(2-((S or R)-2-(2-isopropylphenyl)-4-((1-methyl-1H-pyrazol-4-yl)methyl)piperazin-1-yl)-7-azaspiro[3.5]nonan-7-yl)benzamide] | 0.038 nM | 50.0 | 1.9 nM | 7.6 nM | 57.3 nM
COc1ccc(CN2CCN(C3CC4(CCN(c5ccc(C(=O)NS(=O)(=O)c6ccc(NCC7CCOCC7)c([N+](=O)[O-])c6)c(Oc6cnc7[nH]ccc7c6)c5)CC4)C3)[C@H](c3ccccc3C(C)C)C2)cc1 (single isomer, unassigned) [Example 69, (R or S)-2-((1H-pyrrolo[2,3-b]pyridin-5-yl)oxy)-4-(2-(2-(2-isopropylphenyl)-4-(4-methoxybenzyl)piperazin-1-yl)-7-azaspiro[3.5]nonan-7-yl)-N-((3-nitro-4-(((tetrahydro-2H-pyran-4-yl)methyl)amino)phenyl)sulfonyl) benzamide] | 0.041 nM | 8.9 | 0.37 nM | 0.47 nM | 2 nM
CCN1CCN(C2CC3(CCN(c4ccc(C(=O)NS(=O)(=O)c5ccc(NC[C@H]6CC[C@](C)(O)CC6)c([N+](=O)[O-])c5)c(Oc5cnc6[nH]ccc6c5)c4)CC3)C2)C(c2ccccc2C(C)C)C1 (stereo partly drawn) [Example 2] | 0.011 nM | 22.7 | 0.25 nM | 0.53 nM | 3.94 nM
CC(C)c1ccccc1C1CN(C2CCCCC2)CCN1C1CC2(CCN(c3ccc(C(=O)NS(=O)(=O)c4ccc(NC[C@H]5CC[C@](C)(O)CC5)c([N+](=O)[O-])c4)c(Oc4cnc5[nH]ccc5c4)c3)CC2)C1 (stereo partly drawn) [Example 9] | 0.034 nM | 15.3 | 0.52 nM | 0.51 nM | 4.37 nM
COc1ccc(CN2CCN(C3CC4(CCN(c5ccc(C(=O)NS(=O)(=O)c6ccc(NC[C@H]7CC[C@](C)(O)CC7)c([N+](=O)[O-])c6)c(Oc6cnc7[nH]ccc7c6)c5)CC4)C3)C(c3ccccc3C)C2)cc1 (stereo partly drawn) [Example 34, 2-((1H-pyrrolo[2,3-b]pyridin-5-yl)oxy)-N-((4-((((1r,4r)-4-hydroxy-4-methylcyclohexyl)methyl)amino)-3-nitrophenyl)sulfonyl)-4-(2-(4-(4-methoxybenzyl)-2-(o-tolyl)piperazin-1-yl)-7-azaspiro[3.5]nonan-7-yl)benzamide] | 0.049 nM | 36.7 | 1.8 nM | 1.3 nM | 13.9 nM
COc1ccc(CN2CCN(C3CC4(CCN(c5ccc(C(=O)NS(=O)(=O)c6ccc(NC[C@H]7CC[C@](C)(O)CC7)c([N+](=O)[O-])c6)c(Oc6cnc7[nH]ccc7c6)c5)CC4)C3)C(c3ccccc3CN3CCOCC3)C2)cc1 (stereo partly drawn) [Example 37, 2-((1H-pyrrolo[2,3-b]pyridin-5-yl)oxy)-N-((4-((((1r,4r)-4-hydroxy-4-methylcyclohexyl)methyl)amino)-3-nitrophenyl)sulfonyl)-4-(2-(4-(4-methoxybenzyl)-2-(2-(morpholinomethyl)phenyl)piperazin-1-yl)-7-azaspiro[3.5]nonan-7-yl)benzamide] | 0.42 nM | 28.6 | 12 nM | 77.4 nM | 289 nM
